# Assay results published in patent US4277479A, “Tetrazolylalkoxycarbostyril derivatives and pharmaceutical compositions containing them” (Otsuka Pharmaceutical Co., Ltd., priority 1978, dated 1981).
# How the values were obtained:
# [1] = system: rabbit platelet (collagen-induced aggregation); test: Platelet aggregation inhibitory effect, collagen-induced aggregation in rabbit platelet; format: cell-based; conditions: Oryctolagus cuniculus, read-out: Inhibition effect on collagen-induced aggregation in rabbit platelet; for inhibition at 100 µM: concentration of the test compound solution 10^-4 mole; for inhibition at 10 µM: concentration of the test compound solution 10^-5 mole; for inhibition at 1 µM: concentration of the test compound solution 10^-6 mole
# [2] = system: Gold blatt type renoprival hypertension rats (RHR); test: Hypo-tensive effect, Gold blatt type renoprival hypertension rats (RHR), tail-cuff method; format: in vivo, rat; conditions: 30 mg/kg oral, mean ± standard deviation
# Method: (§1) Hypo-tensive effect of the compounds was measured by determining the maximum blood pressure of the test animals according to a procedure of Tail-cuff method.
# (§2) The following types of test animals were used:
# (1) Gold blatt type renoprival hypertension rats (RHR)
# Wistar strain male rats having 160-180 g of body weight were anesthetized with ether and the left-side renal artery was plugged with a silver clip having 0.2 mm inside diameter, while the right-side renal artery was kept as it was without operation. Four (4) weeks after the operation, rats having the maximum blood pressure over 150 mmHg were selected and used as test animals after having been denied food overnight.
# (§3) Each of compounds to be tested was administered orally and the blood pressure of the rats was measured before the administration and 1, 2, 4, 6 and 8 hours after the administration. The blood pressure was measured by using Recorder (Rectihoriz type 8S, San-ei Instrument) and Electrosthygmomanometer PE-300 (Macro Bio-systems, Houston, Tex.).
# [3] = system: rabbit platelet (ADP-induced aggregation); test: Platelet aggregation inhibitory effect, ADP-induced aggregation in rabbit platelet; format: cell-based; conditions: Oryctolagus cuniculus; for inhibition at 100 µM: concentration of the test compound solution 10^-4 mole; for inhibition at 100 µM / inhibition at 10 µM: read-out: Inhibition effect on ADP-induced aggregation in rabbit platelet; for inhibition at 10 µM: concentration of the test compound solution 10^-5 mole; for inhibition at 1 µM: concentration of the test compound solution 10^-6 mole
# [4] = system: Deoxycorticosteroneacetate (DOCA)/saline hypertension rats (DHR); test: Hypo-tensive effect, Deoxycorticosteroneacetate (DOCA)/saline hypertension rats (DHR), tail-cuff method; format: in vivo, rat; conditions: 30 mg/kg oral, mean ± standard deviation
# Method: as §1, §2
# (2) Deoxycorticosteroneacetate (DOCA)/saline hypertension rats (DHR)
# Wistar strain male rats having 150-170 g of body weight were anesthetized with ether and the left-side kidney was enucleated. One(1) week after the operation, 10 mg/kg of DOCA was injected subcutaneously once a week and 1% NaCl aqueous solution was given as drinking water. Five(5) weeks after the operation, rats having the maximum blood pressure over 150 mmHg were selected and used as test animals after having been denied food overnight.
# as §3
# Acute toxicity test = conditions: mouse, in vivo; male mice, oral administration
# Method: The test compounds were administered orally to the mice and LD50 (mg/kg) of the compounds was determined.
Compound,inhibition at 100 µM [1] [%],inhibition at 10 µM [1] [%],inhibition at 1 µM [1] [%],"Maximum blood pressure, difference after the administration ([2]; 1 hour) [mmHg]","Maximum blood pressure, difference after the administration ([2]; 2 hours) [mmHg]","Maximum blood pressure, difference after the administration ([2]; 4 hours) [mmHg]","Maximum blood pressure, difference after the administration ([2]; 6 hours) [mmHg]","Maximum blood pressure, difference after the administration ([2]; 8 hours) [mmHg]",inhibition at 100 µM [3] [%],inhibition at 10 µM [3] [%],inhibition at 1 µM [3] [%],"Maximum blood pressure, difference after the administration ([4]; 1 hour) [mmHg]","Maximum blood pressure, difference after the administration ([4]; 2 hours) [mmHg]","Maximum blood pressure, difference after the administration ([4]; 4 hours) [mmHg]","Maximum blood pressure, difference after the administration ([4]; 6 hours) [mmHg]","Maximum blood pressure, difference after the administration ([4]; 8 hours) [mmHg]",LD50 (Acute toxicity test) [mg/kg]
"O=c1ccc2cc(OCCCc3nnnn3C3CCCCC3)ccc2[nH]1 [Compound 1, 6-[3-(1-Cyclohexyltetrazol-5-yl)propoxy]carbostyril]",100,100,25.9,-3.3 ± 5.2,-9.9 ± 6.7,-36.7 ± 9.7,-33.4 ± 8.6,-31.3 ± 8.8,100,63.4,32.7,-10.1 ± 3.7,-10.0 ± 3.7,-17.4 ± 5.2,-25.4 ± 10.5,-34.6 ± 13.5,> 1000
"O=c1ccc2cc(OCCCc3nnnn3CC3CCCCC3)ccc2[nH]1 [Compound 5, 6-[3-(1-Cyclohexylmethyltetrazol-5-yl)propoxy]carbostyril]",100,100,24.7,-30.2 ± 8.2,-21.2 ± 5.7,-21.7 ± 7.5,-24.7 ± 10.4,,100,64.1,34.2,-10.7 ± 10.6,-15.2 ± 11.2,-12.5 ± 15.3,-18.1 ± 9.6,,> 1000
"O=c1ccc2cc(OCCCc3nnnn3C3CCCCCCC3)ccc2[nH]1 [Compound 6, 6-[3-(1-Cyclooctyltetrazol-5-yl)propoxy]carbostyril]",100,100,27.4,-8.5 ± 4.3,-10.7 ± 7.6,-40.8 ± 9.9,-35.4 ± 9.5,-28.4 ± 7.7,100,75.5,30.5,-9.2 ± 4.8,-12.0 ± 5.6,-18.5 ± 6.1,-30.3 ± 10.8,-26.8 ± 10.6,> 1000
"O=c1ccc2cc(OCCCCc3nnnn3C3CCCCC3)ccc2[nH]1 [Compound 7, 6-[4-(1-Cyclohexyltetrazol-5-yl)butoxy]carbostyril]",100,100,26.8,-9.5 ± 10.4,-12.6 ± 8.9,-34.9 ± 19.8,-30.4 ± 8.6,-19.7 ± 8.4,100,59.9,28.7,-8.4 ± 10.3,-11.5 ± 8.5,-14.8 ± 7.7,-20.2 ± 14.0,-21.3 ± 19.1,> 1000
